This note sets out measurements from PubChem BioAssay (NCI).

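Cultured in 96-well plates, cells were exposed to test compound for 48 hours across five concentrations. Abbreviation: GI50, concentration required for 50% inhibition of growth. TGI: concentration producing complete growth inhibition.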 Where only a bound is given, the exact number is not on record here.

Among the test systems are SW-620 colon; DU-145 prostate; SK-MEL-5 melanoma; MOLT-4 leukemia; SF-539 CNS; UO-31 renal; EKVX NSCLC; HOP-62 NSCLC; CCRF-CEM leukemia; A549 NSCLC.
Experiment in all cases: NCI anticancer screen, dose series, 48 h

Turning to `C[C@]12CC[C@H]3[C@@H](C[C@@H]4SC(Nc5ccccc5)=N[C@@]45CC(O)CC[C@]35C)[C@@H]1CCC2O` (stereo partly specified), the GI50 in the experiment on SW-620 colon is 2.27 µM; with DU-145 prostate, 1.7 µM; with SK-MEL-5 melanoma it was 1.82 µM; in the experiment with MOLT-4 leukemia, 1.87 µM; in the experiment on SF-539 CNS, 1.19 µM; with UO-31 renal, 1.67 µM. Also, the GI50 in the experiment on EKVX NSCLC was 2.75 µM; in the experiment on HOP-62 NSCLC, 2.47 µM; in the experiment with CCRF-CEM leukemia, 1.6 µM; with A549 NSCLC it was 2.41 µM. Moreover, the TGI stood at 5.36 µM with SW-620 colon; 3.62 µM in the experiment on DU-145 prostate; 3.41 µM in the experiment on SK-MEL-5 melanoma; 8.07 µM in the experiment on MOLT-4 leukemia; 2.62 µM in the experiment with SF-539 CNS; 3.05 µM in the experiment with UO-31 renal. Further, the TGI came to 9.26 µM in the experiment on EKVX NSCLC, 6.54 µM in the experiment with HOP-62 NSCLC, 27.1 µM with CCRF-CEM leukemia and 6.02 µM with A549 NSCLC.

On to `Oc1cccc(/C=N/Nc2nnc(N/N=C/c3cccc(O)c3)c3ccccc23)c1`, for which the TGI in the experiment on SW-620 colon worked out at 56.8 µM; in the experiment on DU-145 prostate, 66 µM; in the experiment with SK-MEL-5 melanoma, 8.86 µM; with MOLT-4 leukemia it was 6.43 µM; in the experiment with SF-539 CNS it was 34.6 µM; in the experiment with UO-31 renal it was 52 µM. For the same molecule, the TGI with EKVX NSCLC turned out to be 43.6 µM; in the experiment with HOP-62 NSCLC, 33 µM; in the experiment on CCRF-CEM leukemia, 88.3 µM; in the experiment with A549 NSCLC it was 57.5 µM.

Turning to `C/C(=N\NC(=S)N1CCCCCCCCCCCC1)c1ccccn1`, the TGI in the experiment with SW-620 colon is 0.692 µM; in the experiment on DU-145 prostate it was 1.94 µM; in the experiment with SK-MEL-5 melanoma, 0.636 µM; in the experiment with MOLT-4 leukemia it was 1.07 µM; in the experiment with SF-539 CNS it was 0.846 µM; in the experiment with UO-31 renal it was 1.77 µM. In addition, the TGI was found to be 0.432 µM in the experiment with EKVX NSCLC, 1.36 µM with HOP-62 NSCLC, 1.76 µM with CCRF-CEM leukemia and 1.35 µM with A549 NSCLC.

`COCCN1CCN(Cc2ccc(-c3n[nH]c4c3C(=O)c3c(NC(=O)NN5CCOCC5)cccc3-4)cc2)CC1`: the GI50 in the experiment with SW-620 colon is 0.0242 µM; in the experiment on DU-145 prostate it was 0.0267 µM; in the experiment on SK-MEL-5 melanoma, 0.0269 µM; with MOLT-4 leukemia it was 0.0212 µM; in the experiment with SF-539 CNS it was 0.029 µM; with UO-31 renal it was 0.0916 µM. The GI50 in the experiment with EKVX NSCLC is 0.0348 µM; with HOP-62 NSCLC, 0.0324 µM; with CCRF-CEM leukemia it was 0.0211 µM; in the experiment on A549 NSCLC, 0.0289 µM. In addition, the TGI in the experiment on SW-620 colon is greater than 6.22 µM; in the experiment on MOLT-4 leukemia, 0.228 µM; with SF-539 CNS it was 0.086 µM; in the experiment with UO-31 renal, 9.36 µM; with HOP-62 NSCLC it was 2.94 µM; with A549 NSCLC, 0.214 µM.

Consider `Oc1ccc(CCNCc2cc3c(cc2Br)OCO3)cc1`, for which the TGI in the experiment with SW-620 colon, with DU-145 prostate, in the experiment on SK-MEL-5 melanoma, in the experiment with MOLT-4 leukemia, in the experiment with SF-539 CNS and with UO-31 renal was greater than 100 µM in each case. Further, the TGI in the experiment with EKVX NSCLC, in the experiment on HOP-62 NSCLC, with CCRF-CEM leukemia and in the experiment with A549 NSCLC was greater than 100 µM throughout.

As to `O=c1c(Br)cc2c(-c3ccccc3)c3cc(Br)c(O)c(Br)c3oc-2c1Br`, the TGI with SW-620 colon, in the experiment on DU-145 prostate, in the experiment on SK-MEL-5 melanoma, with MOLT-4 leukemia, in the experiment on SF-539 CNS and in the experiment with UO-31 renal was greater than 100 µM in each case. Also, the TGI in the experiment on EKVX NSCLC, in the experiment with HOP-62 NSCLC, in the experiment with CCRF-CEM leukemia and in the experiment with A549 NSCLC was greater than 100 µM throughout.

On to `COc1c(-c2ccc(O)c(O)c2)oc2c(O)c(O)cc(O)c2c1=O`, for which the TGI in the experiment with SW-620 colon was 43.9 µM; in the experiment with DU-145 prostate, greater than 100 µM; in the experiment on SK-MEL-5 melanoma, greater than 100 µM; with MOLT-4 leukemia, 73.8 µM; with SF-539 CNS, greater than 100 µM; with UO-31 renal, greater than 100 µM. The TGI in the experiment on EKVX NSCLC is greater than 100 µM; with HOP-62 NSCLC it was 67.4 µM; in the experiment on CCRF-CEM leukemia, 97.7 µM; in the experiment on A549 NSCLC, greater than 100 µM.

On to `CCCCNC(=O)c1cc(NCc2cc(O)ccc2O)ccc1O`, for which the GI50 in the experiment on SW-620 colon was 18.9 µM; in the experiment on DU-145 prostate it was 15.9 µM; with SK-MEL-5 melanoma, 15.4 µM; with MOLT-4 leukemia, 4.02 µM; in the experiment on SF-539 CNS, 4.16 µM; in the experiment with UO-31 renal it was 2.82 µM. Moreover, the GI50 is 13.4 µM in the experiment with EKVX NSCLC, 71.8 µM in the experiment on HOP-62 NSCLC, 0.873 µM in the experiment with CCRF-CEM leukemia and 21.9 µM in the experiment on A549 NSCLC. The TGI was 43.4 µM in the experiment on SW-620 colon; 29.6 µM with DU-145 prostate; 29.6 µM in the experiment with SK-MEL-5 melanoma; 44.4 µM with MOLT-4 leukemia; 17.1 µM in the experiment with SF-539 CNS; 12.1 µM in the experiment on UO-31 renal. Besides, the TGI was 28.1 µM in the experiment with EKVX NSCLC, greater than 100 µM with HOP-62 NSCLC, 12.8 µM in the experiment on CCRF-CEM leukemia and 48.2 µM in the experiment with A549 NSCLC.

For `NC(N)=Nc1nc2ccc([N+](=O)[O-])cc2[nH]1`, the TGI with SW-620 colon, in the experiment with DU-145 prostate, in the experiment with SK-MEL-5 melanoma, in the experiment on MOLT-4 leukemia, in the experiment with SF-539 CNS and with UO-31 renal was greater than 100 µM in each case. Moreover, the TGI with EKVX NSCLC, with HOP-62 NSCLC, in the experiment with CCRF-CEM leukemia and with A549 NSCLC was greater than 100 µM throughout.

With `Cc1ccc(C(SCC(N)C(=O)O)(c2ccccc2)c2ccccc2)cc1` (stereo unspecified), the GI50 in the experiment on SW-620 colon was 0.0437 µM; with DU-145 prostate it was 0.181 µM; in the experiment with SK-MEL-5 melanoma, 0.0452 µM; with MOLT-4 leukemia, 0.244 µM; with SF-539 CNS it was 0.033 µM; with UO-31 renal, 13.8 µM. Besides, the GI50 in the experiment with EKVX NSCLC is 0.21 µM; with HOP-62 NSCLC, 0.18 µM; in the experiment with CCRF-CEM leukemia, 0.0832 µM; with A549 NSCLC, 0.153 µM. Moreover, the TGI with SW-620 colon was greater than 69.8 µM; in the experiment with DU-145 prostate, 0.466 µM; in the experiment with SK-MEL-5 melanoma it was 19.6 µM; in the experiment on MOLT-4 leukemia, greater than 100 µM; with SF-539 CNS, 1.08 µM; in the experiment on UO-31 renal it was greater than 100 µM. Further, the TGI in the experiment on EKVX NSCLC is greater than 100 µM; in the experiment with HOP-62 NSCLC, greater than 49.7 µM; in the experiment with CCRF-CEM leukemia, greater than 100 µM; in the experiment on A549 NSCLC, greater than 100 µM.
